Key:
PCSK9/LDLR PPI = PCSK9/LDLR PPI (Homo sapiens, UniProt Q8NBP7); assay: PCSK9-LDLR TR-FRET assay (PCSK9/LDLR PPI inhibitory screening); format: binding; conditions: for inhibition at 10 µM: mean of three experiments, read-out: PCSK9 percentage inhibitory rate; for IC50: dose-dependent IC50 plot, Figure 3, read-out: PCSK9 IC50 (inhibition of PCSK9/LDLR PPI)
Method: The PCSK9/LDLR time-resolved fluorescence resonance energy transfer (TR-FRET) assay was performed to evaluate the activity of synthesised compounds in inhibition of PCSK9-LDLR binding. The A series compounds were firstly synthesised for the PCSK9/LDLR PPI inhibitory test. […] Therefore, a group of A12 derivatives (B series) were synthesised with 4-chlorobenzyl substituted in the amino group and various substitutions introduced to the carboxylic group. […] To confirm whether the 4-chloromethyl group is essential for the PPI inhibitory activity, a new series of compounds (C series) were synthesised with the 4-chloromethyl group replaced by 4-methoxymethyl moiety. The inhibitory activity was observed, most likely resulting from the 4-methoxymethyl substitution (Table 3).
The compounds were dissolved in 100% DMSO; then 2 µL of the dilution was added to a 20 µL of reaction to keep […] in all of reactions. The binding reaction was conducted at room temperature. The reaction mixture in assay buffer contains PCSK9, the indicated amount of the inhibitor, ligand LDLR, and the reaction dyes. The reaction mixture was incubated for 120 min before detection of the TR-FRET signal. Fluorescence signals for both the donor and acceptor dyes were measured using a Tecan Infinite M1000 plate reader. TR-FRET was recorded as the ratio of the fluorescence of the acceptor and the donor dyes (acceptor/donor). The TR-FRET data were analysed using Graphpad Prism software.

HepG2 cells = assay: MTT assay on HepG2 cells; format: cell-based; conditions: Homo sapiens, mean of three experiments, read-out: HepG2 percentage inhibitory rate
[1] = system: LDLR level on the surface of HepG2 cells; assay: LDLR expression assay, In-Cell Western (ICW), in the presence of PCSK9; format: cell-based, human; conditions: for effect on LDLR protein level (in words): HepG2 cells in the presence of PCSK9, compared with positive control SBC-115337; for proportion of LDLR: PCSK9 alone 34.33%
Method: LDLR is degraded in lysosomes by binding to PCSK9. Thus, inhibition of PCSK9/LDLR PPI could increase the LDLR level on the surface of hepatocytes. In the current study, human hepatic HepG2 cells were selected for the investigation of the active compounds for LDLR expression. SBC-115337, developed by Shifa Biomedical Corporation, as a potent PCSK9/LDLR PPI inhibitor was utilised as the positive control. All the synthesised compounds were evaluated to be safe with low inhibitory ratios at the dose of 10 µM in the MTT assay (Tables 1–3). Then, in cell western (ICW) assay was performed to detect the LDLR level on the surface of HepG2 cells.
The HepG2 cell line was grown in a humidified incubator with 5% CO2 at 37 °C and cultured in DMEM-High glucose medium with 10% (v/v) heat-inactivation foetal bovine serum, 2 mM L-glutamine and 100 U/ml penicillin-streptomycin. The expression level of LDLR in HepG2 cells was determined by In-Cell Western (ICW) Assay as described previously. Briefly, cells were plated in a 96-well plate (2 × 10^4 cells per well) and cultured for more than 24 h, followed by washing with PBS and starving overnight in DMEM without FBS. HepG2 cells were treated with 4.0 μg/ml PCSK9 (K9) alone and the tested compounds with the presence of 4.0 μg/ml of K9, and vehicle (PBS) for 8 h. Then cells were washed with PBS one time and fixed in 4% paraformaldehyde for 20 min. Cells were washed 5 times with PBS, then were blocked with 5% BSA in PBS for 1 h. LDLR monoclonal Antibody solution (1:1000 in 5% BSA in PBS, 50.0 μL/well) was incubated overnight at 4 °C. Subsequently, the cells were washed 5 times with PBS. Goat anti-mouse IgG-HRP secondary antibody solution (1:2000 in 5% BSA in PBS, 50.0 μL/well) was added and incubated 1 h at RT. Then cells were washed 5 times with PBS and added with TMB substrate, then incubated at RT until desired colour was developed. 50.0 μL/well of 2 M H2SO4 were added to stop the reaction and the absorbance at 450 nm was measured using a plate reader (EnSpire, Perkin Elmer Corporation).

[2] = system: LDL uptake of HepG2 cells; assay: Fluorescent LDL uptake assay in the presence of PCSK9; format: cell-based, human; conditions: PCSK9 treatment group 29.82%
Method: Extracellular LDL uptake assay was performed to evaluate the functional effects of PCSK9/LDLR PPI inhibition. The effects of active compounds in improving the capacity of HepG2 cells to uptake the fluorescent LDL were investigated using SBC-115337 as the positive control. […] The tested compound A12, B1, B3, B4 and B14 strengthened the ability of HepG2 cells to absorb LDL from 29.82% of the PCSK9 treatment group up to 32.78%, 33.29%, 39.58%, 36.24% and 42.41% at the doses of 5 µM, and 44.80%, 47.15%, 50.67%, 49.94 and 64.27% at the doses of 10 µM, respectively.
HepG2 cells (2 × 10^4 cells per well) were seeded in black 96-well plates and cultured for more than 24 h. The following day, cells were treated with 4.0 μg/ml K9 alone and the tested compounds with the presence of 4.0 μg/ml of K9, and vehicle (PBS) for 8 h. At the end of the treatments, the culture medium was replaced with 50.0 μl/well LDL-DyLight™ 550 working solution (Cayman Chemical Company, US). The cells were additionally incubated for 16 h at 37 °C. Then the cells were washed with PBS one time, then added PBS with 100.0 μl/well. The degree of LDL uptake was measured using a plate reader (EnSpire, Perkin Elmer Corporation) at excitation wavelengths 540 nm and emission wavelengths 570 nm.

[3] = 5 µM compound with 4.0 μg/ml PCSK9
[4] = 10 µM compound with 4.0 μg/ml PCSK9

Chain of PCSK9/LDLR PPI (Q8NBP7 153-692): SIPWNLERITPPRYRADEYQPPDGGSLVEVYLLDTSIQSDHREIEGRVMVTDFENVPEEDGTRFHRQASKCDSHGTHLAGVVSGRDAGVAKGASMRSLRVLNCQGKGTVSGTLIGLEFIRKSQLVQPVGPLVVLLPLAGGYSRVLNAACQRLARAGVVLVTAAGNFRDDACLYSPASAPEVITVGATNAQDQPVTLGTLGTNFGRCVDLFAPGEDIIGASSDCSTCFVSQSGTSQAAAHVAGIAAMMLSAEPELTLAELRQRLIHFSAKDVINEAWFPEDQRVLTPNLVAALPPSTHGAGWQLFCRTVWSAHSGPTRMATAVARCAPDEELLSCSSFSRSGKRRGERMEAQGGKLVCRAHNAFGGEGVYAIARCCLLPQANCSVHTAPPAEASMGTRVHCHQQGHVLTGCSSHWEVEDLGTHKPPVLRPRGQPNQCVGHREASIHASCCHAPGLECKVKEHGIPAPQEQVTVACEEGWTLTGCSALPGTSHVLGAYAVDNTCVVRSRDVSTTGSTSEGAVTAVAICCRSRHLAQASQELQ
Chain of PCSK9/LDLR PPI (Q8NBP7 31-152 partner limits assumed): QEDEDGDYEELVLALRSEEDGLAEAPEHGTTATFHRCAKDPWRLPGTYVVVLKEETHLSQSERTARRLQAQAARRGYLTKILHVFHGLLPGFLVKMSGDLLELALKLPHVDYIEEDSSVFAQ

Structure (SMILES) | inhibition at 10 µM (PCSK9/LDLR PPI) | IC50 (PCSK9/LDLR PPI) | inhibition at 10 µM (HepG2 cells) | effect on LDLR protein level (in words) [1] | LDL uptake of HepG2 cells [2, 3] | LDL uptake of HepG2 cells [2, 4] | proportion of LDLR ([1]; 5 µM compound with 4.0 μg/ml PCSK9, 8 h) | proportion of LDLR ([1]; 10 µM compound with 4.0 μg/ml PCSK9, 8 h)
COc1cc(NC(=O)c2ccc(-c3cc4c(cc3NC(=O)c3ccc(CCl)cc3)OCO4)cc2)cc(OC)c1OC [A12, 4-(Chloromethyl)-N-(6-(4-((3,4,5-trimethoxyphenyl)carbamoyl)phenyl)benzo[d][1,3]dioxol-5-yl)benzamide] | 45.1 ± 0.12% | 70.8 µM | 7.85 ± 0.25% | restored the LDLR protein level in a dose dependent manner | 32.78% | 44.80% |  | 
O=C(Nc1ccc(Cl)cc1)c1ccc(-c2cc3c(cc2NC(=O)c2ccc(CCl)cc2)OCO3)cc1 [B1, 4-(Chloromethyl)-N-(6-(4-((4-chlorophenyl)carbamoyl)phenyl)benzo[d][1,3]dioxol-5-yl)benzamide] | 54.3 ± 1.54% | 62.2 µM | 9.97 ± 0.39% | restored the LDLR protein level in a dose dependent manner | 33.29% | 47.15% |  | 
O=C(Nc1ccc(F)cc1)c1ccc(-c2cc3c(cc2NC(=O)c2ccc(CCl)cc2)OCO3)cc1 [B3, 4-(Chloromethyl)-N-(6-(4-((4-fluorophenyl)carbamoyl)phenyl)benzo[d][1,3]dioxol-5-yl)benzamide] | 46.3 ± 2.77% | 23.4 µM | 8.09 ± 0.76% | restored the LDLR protein level in a dose dependent manner | 39.58% | 50.67% |  | 
O=C(Nc1ccc(O)cc1)c1ccc(-c2cc3c(cc2NC(=O)c2ccc(CCl)cc2)OCO3)cc1 [B4, 4-(Chloromethyl)-N-(6-(4-((4-hydroxyphenyl)carbamoyl)phenyl)benzo[d][1,3]dioxol-5-yl)benzamide] | 45.2 ± 2.85% | 24.6 µM | 5.42 ± 0.38% | restored the LDLR protein level in a dose dependent manner | 36.24% | 49.94% |  | 
COc1ccccc1N1CCN(C(=O)c2ccc(-c3cc4c(cc3NC(=O)c3ccc(CCl)cc3)OCO4)cc2)CC1 [B14, 4-(Chloromethyl)-N-(6-(4-(4-(2-methoxyphenyl)piperazine-1-carbonyl)phenyl)benzo[d][1,3]dioxol-5-yl)benzamide] | 64.6 ± 1.54% | 16.4 µM | 5.71 ± 0.54% | restored the LDLR protein level in a dose dependent manner | 42.41% | 64.27% | 50.55% | 66.51%

— article PMC9307114, “Discovery and SAR analysis of phenylbenzo[d][1,3]dioxole-based proprotein convertase subtilisin/kexin type 9 inhibitors” (Journal of Enzyme Inhibition and Medicinal Chemistry, 2022)
